Assay [1] deals with PIP3 levels in A549 cells. In words: PIP3 measurement by mass spectrometry in A549 cells. The following applies: 2 min. The assay is classed as cell-based, human. Here is the method: FIG. 21. a, MEFs were stimulated for the indicated time points with 1938 (5 μM) or for 2 min with PDGF (20 ng/ml) or insulin (100 nM), followed by lipid extraction and PIP3 measurement by mass spectrometry. b, MEFs were stimulated for 2 min with increasing doses of 1938 or PDGF, followed by lipid extraction and PIP3 measurement by mass spectrometry. c, A549 cells were stimulated for 2 min with increasing doses of 1938 or insulin, or 10 ng/ml PDGF, followed by lipid extraction and PIP3 measurement by mass spectrometry. […] These maximal 1938-induced PIP3 levels are below those required to give rise to sufficient PI(3,4)P2 to be detectable by mass spectrometry, a conclusion also supported by the observation that substantial levels of PIP3 induced by lower doses of PDGF (e.g. 0.5 ng/ml) were also not sufficient to give rise to levels of PI(3,4)P2 detectable by mass. […] A strong PIP3 response was also observed with insulin in these cells, with no PIP3 induced by PDGF, in line with the absence of this receptor in epithelial cells, including in A549.

Assay [2] addresses T1, N345K mutant of p110α (Homo sapiens, UniProt P42336, N345K).
T1 construct: Full-length p110α was expressed in a complex with full-length p85α (for biochemistry and HDX-MS); 6xHis followed by TEV protease site (N); made in house; host or cells: Spodoptera frugiperda Sf9 (plasmid OP661)
Kind of assay: ADP-Glo kinase assay, oncogenic mutant N345K. The assay is classed as biochemical. The settings on record: compared with pY. Here is the method:
Co-stimulation of 1938 with pY led to an additive activatory effect for G106V, but not for the N345K and E545K mutants (FIG. 1f/FIG. 22f).
Kinase reactions were performed with ADP-Glo kinase assay kit (Promega Corporation). The enzyme, substrate and compounds were diluted in reaction buffer (20 mM HEPES, 50 mM NaCl, 50 mM KCl, 3 mM MgCl2, 1 mM EGTA, 1 mM TCEP, pH 7.4). Final concentrations of PI3Kα and PI3Kδ used were 25 nM and 50 nM for PI3Kβ. Liposomes (5% brain PI(4,5)P2, 20% brain phosphatidylserine, 45% brain phosphatidylethanolamine, 15% brain phosphatidylcholine, 10% cholesterol, 5% sphingomyelin (Avanti Polar Lipids)) were used at a final concentration of 1 mg/ml. The pY sequence is ESDGG(pY)[…](pY)[…].
For characterisation of the effects of 1938 on in vitro PI3K enzymology, all reactions were performed at room temperature with 384 white-polystyrene plates (Corning #3574). The final DMSO concentration in the assay was between 0.5%-1.8%. The reaction mixture contained 2 μl PI3K enzyme, 2 μl compound and/or pY and 2 μl of liposome substrate mixed with ATP. ATP was used at a final concentration of 200 μM, unless otherwise stated. The enzyme and compounds were pre-incubated for 10 min prior to addition of substrate. […] For enzyme kinetic calculations, data was expressed as velocity (pmol of ADP generated/sec). […]
For orientation: ADP-Glo first removes unused ATP, then detects ADP through luciferase.

Assay [3] deals with PI3Kα (Homo sapiens, UniProt P42336). In words: ADP-Glo in vitro lipid kinase assay, PI3Kα. The assay is classed as biochemical. More on the design: Full-length p110α was expressed in a complex with full-length p85α (for biochemistry and HDX-MS); 6xHis followed by TEV protease site (N); made in house; host or cells: Spodoptera frugiperda Sf9 (baculovirus co-infection; plasmids OP831 and OP809). Here is the method:
The effect of 1938 on the in vitro lipid kinase activity of p85α in complex with p110α, p110β or p110δ (further referred to as PI3Kα, PI3Kβ and PI3Kδ) was tested. As a positive control, a bis-phosphorylated phosphopeptide (a PDGF-receptor-derived peptide phosphorylated on Tyr-740 and Tyr-751, hereafter referred to as pY peptide) was used to mimic engagement of the p85α SH2 domains with tyrosine-phosphorylated peptides in membrane-bound receptors and adaptor proteins, known to activate the PI3Kα complex.
Kinase reactions were performed with ADP-Glo kinase assay kit (Promega Corporation). The enzyme, substrate and compounds were diluted in reaction buffer (20 mM HEPES, 50 mM NaCl, 50 mM KCl, 3 mM MgCl2, 1 mM EGTA, 1 mM TCEP, pH 7.4). Final concentrations of PI3Kα and PI3Kδ used were 25 nM and 50 nM for PI3Kβ. Liposomes (5% brain PI(4,5)P2, 20% brain phosphatidylserine, 45% brain phosphatidylethanolamine, 15% brain phosphatidylcholine, 10% cholesterol, 5% sphingomyelin (Avanti Polar Lipids)) were used at a final concentration of 1 mg/ml.
For compound profiling, the reaction mixture contained 2 μl PI3K enzyme, 2 μl compound and/or pY and 2 μl of liposome substrate mixed with ATP. ATP was used at a final concentration of 500 μM for PI3Kα and PI3Kβ and at 200 μM for PI3Kδ, unless otherwise stated. The final DMSO concentration in the assay was 1%. The experiments were performed at room temperature for 3 h using 384 white-polystyrene plates (Corning #3824) before addition of 6 μl of ADP-Glo R1 to terminate the reaction. The plate was incubated for 45 min, followed by addition of 12 μl of ADP-Glo R2 and incubated further for 60 min in the dark. Luminescence was read using a Sense (Hidex) plate reader. […] All analyses were performed using GraphPad Prism 7.
For characterisation of the effects of 1938 on in vitro PI3K enzymology, all reactions were performed at room temperature with 384 white-polystyrene plates (Corning #3574). The final DMSO concentration in the assay was between 0.5%-1.8%. The reaction mixture contained 2 μl PI3K enzyme, 2 μl compound and/or pY and 2 μl of liposome substrate mixed with ATP. ATP was used at a final concentration of 200 μM, unless otherwise stated. The enzyme and compounds were pre-incubated for 10 min prior to addition of substrate. The reaction was allowed to proceed for 45 min at room temperature, before addition of 6 μl of ADP-Glo R1 to terminate the reaction. The plate was incubated for 60 min, followed by addition of 12 μl of ADP-Glo R2 and incubated further for 60 min in the dark. For enzyme kinetic calculations, data was expressed as velocity (pmol of ADP generated/sec). ADP-ATP standard curves were performed according to the manufacturer's instructions, and all analyses were performed using GraphPad Prism 8.

The subject of assay [4] is mutant PI3Kα (D603K, D603A, 603DCN_AAA605, D603A/F1016S, L1006R, F1016S, L1006R/F1016S). In words: Activation of binding-pocket mutants of PI3Kα. The settings on record: all mutants activatable by pY. The assay is classed as biochemical. The text has this:
The inventors then performed mutagenesis in attempt to generate 1938-resistant mutants. Based on the crystal structure and SAR data, we made the following mutants: D603K, D603A, 603DCN_AAA605 triple mutant, D603A/F1016S double mutant, L1006R, F1016S, and the L1006R/F1016S double mutant.

Chain of PI3Kα (P42336 whole entry, the tested form may be a part): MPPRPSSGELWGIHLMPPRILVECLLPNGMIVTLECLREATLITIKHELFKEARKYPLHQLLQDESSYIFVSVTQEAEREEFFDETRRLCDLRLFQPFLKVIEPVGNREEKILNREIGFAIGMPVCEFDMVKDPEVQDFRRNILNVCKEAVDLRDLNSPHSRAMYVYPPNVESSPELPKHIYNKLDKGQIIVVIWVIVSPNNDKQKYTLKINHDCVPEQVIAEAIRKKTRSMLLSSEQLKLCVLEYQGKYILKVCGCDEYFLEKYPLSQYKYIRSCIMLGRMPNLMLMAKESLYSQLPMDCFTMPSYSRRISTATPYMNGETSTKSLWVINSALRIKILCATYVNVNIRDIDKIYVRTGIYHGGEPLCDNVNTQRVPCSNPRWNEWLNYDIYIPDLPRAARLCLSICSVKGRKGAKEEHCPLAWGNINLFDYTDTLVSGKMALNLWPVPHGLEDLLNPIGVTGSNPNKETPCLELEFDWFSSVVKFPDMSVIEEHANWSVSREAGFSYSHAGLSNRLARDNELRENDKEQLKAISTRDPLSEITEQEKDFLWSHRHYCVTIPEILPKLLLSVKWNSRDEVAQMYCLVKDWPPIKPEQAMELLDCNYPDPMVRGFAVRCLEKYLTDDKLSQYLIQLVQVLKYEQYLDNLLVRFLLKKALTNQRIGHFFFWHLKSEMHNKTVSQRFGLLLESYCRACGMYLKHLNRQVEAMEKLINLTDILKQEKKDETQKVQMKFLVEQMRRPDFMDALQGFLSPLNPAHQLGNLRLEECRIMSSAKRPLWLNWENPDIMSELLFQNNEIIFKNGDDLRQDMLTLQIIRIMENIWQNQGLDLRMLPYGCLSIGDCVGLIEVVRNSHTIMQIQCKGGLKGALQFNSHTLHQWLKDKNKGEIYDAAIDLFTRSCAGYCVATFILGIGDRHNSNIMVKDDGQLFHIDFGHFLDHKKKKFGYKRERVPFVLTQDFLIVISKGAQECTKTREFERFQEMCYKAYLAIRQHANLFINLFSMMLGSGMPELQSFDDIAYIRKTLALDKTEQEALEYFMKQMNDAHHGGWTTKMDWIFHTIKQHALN
Chain of PI3Kα (P27986 whole entry partner, the tested form may be a part): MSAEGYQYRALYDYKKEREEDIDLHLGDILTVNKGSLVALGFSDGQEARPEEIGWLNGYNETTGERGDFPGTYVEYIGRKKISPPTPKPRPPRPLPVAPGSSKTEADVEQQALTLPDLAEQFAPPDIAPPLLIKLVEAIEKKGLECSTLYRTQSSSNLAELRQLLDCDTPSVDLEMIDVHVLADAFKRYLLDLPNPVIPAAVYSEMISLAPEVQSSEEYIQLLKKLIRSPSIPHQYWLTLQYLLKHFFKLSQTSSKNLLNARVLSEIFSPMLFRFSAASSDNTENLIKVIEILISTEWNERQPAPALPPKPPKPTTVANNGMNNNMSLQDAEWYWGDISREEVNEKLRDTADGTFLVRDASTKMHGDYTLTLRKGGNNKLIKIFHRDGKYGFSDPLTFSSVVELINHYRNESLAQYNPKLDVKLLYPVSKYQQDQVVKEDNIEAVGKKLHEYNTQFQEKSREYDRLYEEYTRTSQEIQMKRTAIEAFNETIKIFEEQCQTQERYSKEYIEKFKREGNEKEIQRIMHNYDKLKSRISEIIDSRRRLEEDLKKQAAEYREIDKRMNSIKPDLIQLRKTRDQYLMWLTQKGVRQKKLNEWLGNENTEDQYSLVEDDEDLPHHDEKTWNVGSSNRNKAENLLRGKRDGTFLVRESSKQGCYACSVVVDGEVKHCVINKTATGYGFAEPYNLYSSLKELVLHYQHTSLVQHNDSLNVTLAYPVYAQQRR
T1 sequence (P42336 whole entry N345K): as the sequence (P42336 whole entry, the tested form may be a part) above, with N345K counted along it
T1 sequence (P27986 whole entry partner): as the sequence (P27986 whole entry partner, the tested form may be a part) above

As to `CCN1CCN(c2ccc(Nc3cc(Nc4cccc5c4N(C(C)=O)CC5)ccn3)cc2)CC1` [Example 1938], the “concentration at which PIP3 response maxed out” value in assay [1] is 10 µM. Moreover, the “activation of N345K mutant” value in assay [2] is recorded as “levels comparable with stimulation with pY”. For the same compound, the “PI3Kα activation in combination with a saturating concentration of pY” value in assay [3] (1938 plus pY) is “synergistic PI3Kα activation”. In addition, in assay [3] (ATP titration), the “maximum rate of reaction (Vmax) of PI3Kα” value is “increased” and the “turnover number (Kcat) of PI3Kα” value is listed as “increased”. The “effect on in vitro lipid kinase activity of PI3Kα” value in assay [3] (concentration-dependent) was “activate PI3Kα”. The EC50 (commonly the concentration that produces a half-maximal response) in assay [3] (in vitro PI3Kα activation) worked out at 58 ± 28 µM. In addition, the “Max. activity relative to 1938” value in assay [3] (relative to 1938) amounted to 100%. Besides, in assay [3] (relative to pY control), the “Max. activity relative to pY ctrl” value came out at 397 ± 60%. Further, the “activation of pocket mutants by 1938” value in assay [4] is “resistant to activation by 1938”.

The values are drawn from patent US20250263404A1, “AMINOPYRIDINES AS ACTIVATORS OF PI3 KINASE” (UCL Business Ltd, priority 2021, published 2025).
